# Reference: patent US9018224B2, “Substituted cyclopropyl compounds useful as GPR119 agonists” (Merck Sharp & Dohme Corp., priority 2011, dated 2015)
# Biological target: T1, human GPR119 (Homo sapiens, UniProt Q8TDV5)
# T1 sequence (Q8TDV5 1-308 limits assumed): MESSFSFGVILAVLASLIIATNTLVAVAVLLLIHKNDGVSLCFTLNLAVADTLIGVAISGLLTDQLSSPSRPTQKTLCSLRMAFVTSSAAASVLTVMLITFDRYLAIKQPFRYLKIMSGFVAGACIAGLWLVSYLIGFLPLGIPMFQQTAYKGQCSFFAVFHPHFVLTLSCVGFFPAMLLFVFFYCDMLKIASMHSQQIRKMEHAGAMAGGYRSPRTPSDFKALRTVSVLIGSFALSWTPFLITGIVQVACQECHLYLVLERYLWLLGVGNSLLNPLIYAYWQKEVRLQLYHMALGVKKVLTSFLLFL
# Assay: Measurement of GPR119 signaling by cAMP (LANCE cAMP kit or HTRF) in HEK293 cells transfected with human GPR119
# Assay type: cell-based
# Settings: agonist cAMP response in HEK293 cells stably transfected with human GPR119; patent does not say which of the two cAMP formats (LANCE or HTRF)
# Procedure: Measurement of GPR119 Signaling Using LANCE 384-Well cAMP Kit
# The adenylate cyclase assay was constructed following the LANCE™ cAMP Kit (Perkin Elmer, AD0264) instructions. […] The reaction was stopped by incubating with the supplied detection buffer containing the europium chelate of the Eu-SA/Biotin-cAMP tracer for 3 hours. The assay was performed in duplicate in a 384 well plate for duplicate plates. […] Basal activity was determined using a DMSO control and maximum response was defined as cAMP stimulation produced by an internal agonist control. Standard cAMP concentrations were assayed concurrently for conversion of fluorescence signal to cAMP level. The data was analyzed using 4-parameter curve fit in Microsoft Excel
# Measurement of GPR119 Signaling Using a Cyclic AMP (cAMP) Homogenous Time Resolved Fluorescence (HTRF) Assay
# Chinese hamster ovary (CHO) cell lines stably transfected with the permissive guanine nucleotide binding protein alpha 15 (Gα15) and murine GPR119 were maintained in DMEM media containing FBS, penicillin-streptomycin, puromycin, and G418 (geneticin). […] Agonist activation of the GPR119 receptor was measured in receptor transfected cells described above, treated with compounds of this invention, using a commercial homogenous time resolved fluorescence (HTRF) kit for measurement of cAMP (CisBio, Bedford, Mass.). The assay was performed in 96-well half-volume plates (murine) or 384-well plates (human) following the manufacturers instructions. Briefly, suspended cells were incubated with a dose titration of test compound at room temperature for 60 min, lysed, and incubated with HTRF reagents for an additional 60 min. The plate was read using an Envision multilabel reader (Perkin Elmer) adjusted to read time resolved fluorescence and the cAMP concentrations were extrapolated from a cAMP calibration curve. […] The concentration of test compound required to stimulate a half-maximal response (EC50), and efficacy as compared to an internal agonist control, was determined from a sigmoidal 4-parameter curve fit of the resulting plot of normalized activity versus compound concentration.
row,EC50 [nM],Compound
1,6.8,O=C(Cc1ccc(OCC[C@@H]2C[C@@H]2C2CCN(c3ncc(Cl)cn3)CC2)cc1F)N1Cc2nc(-c3ccccc3)[nH]c2C1 [Example 197]
2,1.2,CC1c2cccn2CCN1C(=O)Cc1ccc(OCC[C@@H]2C[C@@H]2C2CCN(c3ncc(Cl)cn3)CC2)cc1F (stereo partly drawn) [Example 174]
3,0.97,O=C(Cc1ccc(OCC[C@@H]2C[C@@H]2C2CCN(c3ncc(Cl)cn3)CC2)cc1F)N1Cc2sccc2C(O)C1 (stereo partly drawn) [Example 173]
4,2.1,O=C(Cc1ccc(OCC[C@@H]2C[C@@H]2C2CCN(c3ncc(Cl)cn3)CC2)cc1F)N1CCc2[nH]c(C(F)(F)F)nc2C1 [Example 192]
5,0.81,O=C(Cc1ccc(OCC[C@@H]2C[C@@H]2C2CCN(c3ncc(Cl)cn3)CC2)cc1F)N1CC(n2cccn2)C1 [Example 119]
6,3.1,O=C(Cc1ccc(OCC[C@@H]2C[C@@H]2C2CCN(c3ncc(Cl)cn3)CC2)cc1F)N1CCc2[nH]nc(C(F)(F)F)c2C1 [Example 146]
7,0.49,CCOCc1cnc(N2CCC([C@H]3C[C@H]3CCOc3ccc(CC(=O)N4CC(F)C4)c(F)c3)CC2)nc1 [Example 201]
8,7.6,CN(CC1CCCCC1)C(=O)Cc1ccc(OCC[C@@H]2C[C@@H]2C2CCN(c3ncc(Cl)cn3)CC2)cc1F [Example 167]
9,0.79,CCOCc1cnc(N2CCC([C@H]3C[C@H]3CCOc3ccc(CC(=O)N4CCC4)c(F)c3)CC2)nc1 [Example 200]
10,0.09,COc1cnc(N2CCC([C@H]3C[C@H]3CCOc3cc(F)c(CC(=O)N4CC(F)C4)c(F)c3)CC2)nc1 [Example 216]
11,1.9,CCc1cnc(N2CCC([C@H]3C[C@H]3CCOc3ccc(CC(=O)NC4CC4)c(F)c3)CC2)nc1 [Example 208]
12,2.8,CC(C)(C)NC(=O)c1nnc2n1CCN(C(=O)Cc1ccc(OCC[C@@H]3C[C@@H]3C3CCN(c4ncc(Cl)cn4)CC3)cc1F)C2 [Example 178]
13,0.66,O=C(Cc1ccc(OCC[C@@H]2C[C@@H]2C2CCN(c3ncc(Cl)cn3)CC2)cc1F)N1CC(c2cccnc2)C1 [Example 122]
14,4.7,O=C(Cc1ccc(OCC[C@@H]2C[C@@H]2C2CCN(c3ncc(Cl)cn3)CC2)cc1F)N1CCc2oc(C3CC3)nc2C1 [Example 143]
15,2.4,CN(CC1CCOCC1)C(=O)Cc1ccc(OCC[C@@H]2C[C@@H]2C2CCN(c3ncc(Cl)cn3)CC2)cc1F [Example 157]
16,0.78,O=C(Cc1ccc(OCC[C@@H]2C[C@@H]2C2CCN(c3ncc(Cl)cn3)CC2)cc1F)N1Cc2cccnc2C1 [Example 123]
17,3.2,O=C(Cc1ccc(OCC[C@@H]2C[C@@H]2C2CCN(c3ncc(Cl)cn3)CC2)cc1F)N1CCc2nc(C3CC3)oc2C1 [Example 150]
18,5.4,O=C(Cc1ccc(OCC[C@@H]2C[C@@H]2C2CCN(c3ncc(Cl)cn3)CC2)cc1F)N1CCCc2[nH]nc(C3CC3)c21 [Example 196]
19,0.41,COCc1cnc(N2CCC([C@H]3C[C@H]3CCOc3cc(F)c(CC(=O)N(C)C4COC4)c(F)c3)CC2)nc1 [Example 226]
20,0.54,O=C(Cc1ccc(OCC[C@@H]2C[C@@H]2C2CCN(c3ncc(Cl)cn3)CC2)cc1F)N1CCn2ncnc2C1 [Example 135]
21,0.26,CCOc1cnc(N2CCC([C@H]3C[C@H]3CCOc3cc(F)c(CC(=O)N(C)C)c(F)c3)CC2)nc1 [Example 234]
22,2,Cn1nc(C(F)(F)F)c2c1CCN(C(=O)Cc1ccc(OCC[C@@H]3C[C@@H]3C3CCN(c4ncc(Cl)cn4)CC3)cc1F)C2 [Example 187]
23,1.7,O=C(Cc1ccc(OCC[C@@H]2C[C@@H]2C2CCN(c3ncc(Cl)cn3)CC2)cc1F)N1CCC(O)CC1 [Example 163]
24,4.7,CCc1nnc2n1CCN(C(=O)Cc1ccc(OCC[C@@H]3C[C@@H]3C3CCN(c4ncc(Cl)cn4)CC3)cc1F)C2 [Example 151]
25,2,O=C(Cc1ccc(OCC[C@@H]2C[C@@H]2C2CCN(c3ncc(Cl)cn3)CC2)cc1F)N1CCc2[nH]ncc2C1 [Example 139]
26,3.6,O=C(Cc1ccc(OCC[C@@H]2C[C@@H]2C2CCN(c3ncc(Cl)cn3)CC2)cc1F)N1CCCc2cnccc21 [Example 194]
27,0.94,"COCc1ccc(N2CCC([C@H]3C[C@H]3CCOc3ccc(CC(=O)N4CCC4)c(F)c3)CC2)nc1 [Example 237, 1-(azetidin-1-yl)-2-(2-fluoro-4-{2-[(1S,2R)-2-{1-[5-(methoxymethyl)pyridin-2-yl]piperidin-4-yl}cyclopropyl]ethoxy}phenyl)ethanone]"

# Continued, compound first:
row,Compound,EC50 [nM]
1,"COCc1cnc(N2CCC([C@H]3C[C@H]3CCOc3ccc(CC(=O)N4CCC4)c(F)c3)CC2)nc1 [Example 41, 1-(azetidin-1yl)-2-(2-fluoro-4-{2 [(1S,2R)-2-{1-[5-(methoxylmethyl)pyrimidin-2yl]piperidin-4-yl}cyclopropyl]ethoxyl}phenyl)ethanone]",0.77
2,COc1cnc(N2CCC([C@H]3C[C@H]3CCOc3ccc(CC(=O)N(C)C)c(F)c3)CC2)nc1 [Example 36],1.7
3,O=C(Cc1ccc(OCC[C@@H]2C[C@@H]2C2CCN(c3ncc(Cl)cn3)CC2)cc1F)N1CCCCC1 [Example 84],1.5
4,O=C(Cc1ccc(OCC[C@@H]2C[C@@H]2C2CCN(c3ncc(Cl)cn3)CC2)cc1F)NC1CCCC1F (stereo partly drawn) [Example 111],3
5,COCc1cnc(N2CCC([C@H]3C[C@H]3CCOc3ccc(CC(=O)N4CCOCC4)c(Cl)c3)CC2)nc1 [Example 32],1.1
6,O=C(Cc1ccc(OCC[C@@H]2C[C@@H]2C2CCN(c3ncc(Cl)cn3)CC2)cc1F)NC1CCC(F)(F)C1 (stereo partly drawn) [Example 95],2.3
7,COCc1cnc(N2CCC([C@H]3C[C@H]3CCOc3ccc(CC(=O)N4CCC(O)CC4)c(F)c3)CC2)nc1 [Example 56],3.7
8,O=C(Cc1ccc(OCC[C@@H]2C[C@@H]2C2CCN(c3ncc(Cl)cn3)CC2)cc1F)N1C[C@H](F)[C@@H](F)C1 [Example 75],0.78
9,CN(C)C(=O)Cc1ccc(OCC[C@@H]2C[C@@H]2C2CCN(c3ncc(Cl)cn3)CC2)cc1F [Example 81],0.63
10,CCc1cnc(N2CCC([C@H]3C[C@H]3CCOc3ccc(CC(=O)N4CCC4)c(Cl)c3)CC2)nc1 [Example 21],0.19
11,O=C(Cc1ccc(OCC[C@@H]2C[C@@H]2C2CCN(c3ncc(Cl)cn3)CC2)cc1F)N1CCC(F)(F)CC1 [Example 86],0.8
12,COCc1cnc(N2CCC([C@H]3C[C@H]3CCOc3ccc(CC(=O)N4CCCC4(F)F)c(F)c3)CC2)nc1 [Example 52],0.36
13,COCc1cnc(N2CCC([C@H]3C[C@H]3CCOc3ccc(CC(=O)N4CCCCC4)c(F)c3)CC2)nc1 [Example 48],0.99
14,CCc1cnc(N2CCC([C@H]3C[C@H]3CCOc3ccc(CC(=O)N(C)C)c(C)c3)CC2)nc1 [Example 19],2.3
15,"O=C(Cc1ccc(OCC[C@@H]2C[C@@H]2C2CCN(c3ncc(Cl)cn3)CC2)cc1F)NCC1CC1 [Example 77, 2-[4-(2-(1S,2R)-2-[1-(5-chloropyrimidin-2-yl)piperidin-4-yl]cyclopropylethoxy)-2-fluorophenyl]-N-(cyclopropylmethyl)acetamide]",1.5
16,COCc1cnc(N2CCC([C@H]3C[C@H]3CCOc3ccc(CC(=O)N(C)C)c(F)c3)CC2)nc1 [Example 47],1.3
17,COCc1cnc(N2CCC([C@H]3C[C@H]3CCOc3ccc(CC(=O)N4CCn5cnnc5C4)c(F)c3)CC2)nc1 [Example 59],7.3
18,O=C(Cc1ccc(OCC[C@@H]2C[C@@H]2C2CCN(c3ncc(Cl)cn3)CC2)cc1F)N1CCC(F)(F)C1 [Example 72],0.5
19,C[C@H](CO)NC(=O)Cc1ccc(OCC[C@@H]2C[C@@H]2C2CCN(c3ncc(Cl)cn3)CC2)cc1F [Example 113],3.9
20,O=C(Cc1ccc(OCC[C@@H]2C[C@@H]2C2CCN(c3ncc(Cl)cn3)CC2)cc1)NC1CC1 [Example 2],1.8
21,CC1CN(C(=O)Cc2ccc(OCC[C@@H]3C[C@@H]3C3CCN(c4ncc(Cl)cn4)CC3)cc2F)C1 [Example 64],0.95
